Data: ChEMBL document CHEMBL1909046, “DrugMatrix in vitro pharmacology data”

Tests used:
[1] = target: 5-hydroxytryptamine receptor 4 (Cavia porcellus, UniProt O70528); assay type: cell membranes, Dunkin-Hartley, Striatum, Membrane; further: in other assays of this panel Not Active means under 50% inhibition at 10 µM
[2] = target: T1, Receptor-type tyrosine-protein phosphatase C (Homo sapiens, UniProt P08575); parameters: species or system Escherichia coli;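 further: inhibition of CD45 enzyme activity measured using DiFMUP as substrate; in other assays of this panel Not Active means under 50% inhibition at 10 µM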
T1 sequence (P08575 whole entry): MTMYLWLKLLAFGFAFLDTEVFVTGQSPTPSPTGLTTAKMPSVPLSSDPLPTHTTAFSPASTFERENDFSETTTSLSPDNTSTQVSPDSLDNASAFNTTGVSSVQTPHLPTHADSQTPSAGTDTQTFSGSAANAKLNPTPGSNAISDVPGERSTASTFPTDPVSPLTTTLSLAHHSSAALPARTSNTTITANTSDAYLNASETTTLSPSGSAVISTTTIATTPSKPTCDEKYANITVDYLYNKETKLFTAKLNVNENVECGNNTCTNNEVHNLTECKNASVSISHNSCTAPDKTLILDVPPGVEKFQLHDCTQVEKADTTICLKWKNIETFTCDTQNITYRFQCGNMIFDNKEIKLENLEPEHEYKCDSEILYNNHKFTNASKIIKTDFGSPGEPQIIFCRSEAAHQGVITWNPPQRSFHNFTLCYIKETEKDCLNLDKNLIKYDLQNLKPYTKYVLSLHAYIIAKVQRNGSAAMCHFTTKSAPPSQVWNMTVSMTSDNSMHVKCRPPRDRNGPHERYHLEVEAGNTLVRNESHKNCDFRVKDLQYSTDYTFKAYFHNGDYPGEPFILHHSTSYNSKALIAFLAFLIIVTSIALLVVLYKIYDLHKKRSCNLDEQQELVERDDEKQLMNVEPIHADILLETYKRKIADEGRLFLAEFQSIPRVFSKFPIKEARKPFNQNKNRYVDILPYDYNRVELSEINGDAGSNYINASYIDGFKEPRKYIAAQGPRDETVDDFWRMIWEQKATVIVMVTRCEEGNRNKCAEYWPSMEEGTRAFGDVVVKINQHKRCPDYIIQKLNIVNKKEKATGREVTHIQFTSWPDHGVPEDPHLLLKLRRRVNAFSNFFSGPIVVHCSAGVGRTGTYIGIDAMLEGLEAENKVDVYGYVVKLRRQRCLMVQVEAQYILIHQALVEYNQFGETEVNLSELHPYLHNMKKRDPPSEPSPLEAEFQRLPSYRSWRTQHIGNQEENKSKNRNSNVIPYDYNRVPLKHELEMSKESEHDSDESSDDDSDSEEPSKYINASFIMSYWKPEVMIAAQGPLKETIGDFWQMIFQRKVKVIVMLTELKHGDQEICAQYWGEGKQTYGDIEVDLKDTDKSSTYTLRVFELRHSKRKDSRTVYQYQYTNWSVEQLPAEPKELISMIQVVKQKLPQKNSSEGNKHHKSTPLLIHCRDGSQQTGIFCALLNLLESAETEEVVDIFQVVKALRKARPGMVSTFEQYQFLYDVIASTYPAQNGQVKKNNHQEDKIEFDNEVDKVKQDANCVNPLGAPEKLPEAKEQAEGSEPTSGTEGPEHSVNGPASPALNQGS

Progesterone receptor = target: T2, Progesterone receptor (Bos taurus, UniProt Q690N0); assay: DRUGMATRIX: Progesterone radioligand binding (ligand: [3H] R-5020); assay type: tissue-based, Uterus; conditions: Not Active = under 50% inhibition at 10 µM
T2 sequence (Q690N0 whole entry): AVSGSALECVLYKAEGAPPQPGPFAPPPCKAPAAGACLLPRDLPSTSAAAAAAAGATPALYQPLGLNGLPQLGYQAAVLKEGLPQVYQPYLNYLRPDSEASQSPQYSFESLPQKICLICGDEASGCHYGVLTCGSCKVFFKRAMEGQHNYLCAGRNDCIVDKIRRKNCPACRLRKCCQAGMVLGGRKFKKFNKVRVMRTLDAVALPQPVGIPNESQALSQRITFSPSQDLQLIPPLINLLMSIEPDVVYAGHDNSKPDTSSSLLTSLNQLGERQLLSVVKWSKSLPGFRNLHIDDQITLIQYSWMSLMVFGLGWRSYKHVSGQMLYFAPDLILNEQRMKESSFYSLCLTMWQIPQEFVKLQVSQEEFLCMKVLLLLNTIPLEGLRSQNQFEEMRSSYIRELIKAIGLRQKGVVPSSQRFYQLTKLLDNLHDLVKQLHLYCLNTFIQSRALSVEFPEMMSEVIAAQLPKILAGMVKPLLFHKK

Adenosine receptor A1 = target: T3, Adenosine receptor A1 (Homo sapiens, UniProt P30542); assay type: cell membranes, CHO, Membrane; conditions: cho;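 further: radioligand binding assay at the adenosine A1 receptor, with DPCPX serving as the labelled ligand; in other assays of this panel Not Active means under 50% inhibition at 10 µM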
T3 sequence (P30542 whole entry): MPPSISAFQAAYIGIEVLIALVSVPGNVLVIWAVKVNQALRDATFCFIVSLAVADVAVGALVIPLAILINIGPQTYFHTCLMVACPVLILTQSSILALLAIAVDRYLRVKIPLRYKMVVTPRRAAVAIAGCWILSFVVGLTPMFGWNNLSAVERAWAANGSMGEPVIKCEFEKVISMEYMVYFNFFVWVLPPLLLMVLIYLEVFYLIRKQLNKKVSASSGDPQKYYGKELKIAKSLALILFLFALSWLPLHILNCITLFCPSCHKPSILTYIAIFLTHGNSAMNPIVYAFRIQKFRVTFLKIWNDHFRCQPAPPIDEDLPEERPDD

[3] = target: Mitogen-activated protein kinase 1 (Homo sapiens, UniProt P28482); assay: DRUGMATRIX: Protein Serine/Threonine Kinase, ERK2 enzyme inhibition (substrate: Myelin Basic Protein); parameters: species or system Escherichia coli; conditions: Not Active = under 50% inhibition at 10 µM
Mitogen-activated protein kinase 1, sequence (P28482 whole entry): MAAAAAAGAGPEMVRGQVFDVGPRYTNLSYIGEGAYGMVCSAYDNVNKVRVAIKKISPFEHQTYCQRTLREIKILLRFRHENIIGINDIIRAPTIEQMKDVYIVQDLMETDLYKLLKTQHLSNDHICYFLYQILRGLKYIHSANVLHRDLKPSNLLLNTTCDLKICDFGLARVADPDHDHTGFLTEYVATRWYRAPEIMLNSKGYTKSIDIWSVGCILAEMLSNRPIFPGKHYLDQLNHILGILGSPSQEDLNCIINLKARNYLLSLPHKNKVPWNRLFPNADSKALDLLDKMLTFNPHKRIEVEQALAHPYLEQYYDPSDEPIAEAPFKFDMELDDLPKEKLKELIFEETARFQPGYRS

[4] = target: Mitogen-activated protein kinase 3 (Homo sapiens, UniProt P27361); assay: DRUGMATRIX: Protein Serine/Threonine Kinase, ERK1 enzyme inhibition (substrate: Myelin Basic Protein); parameters: species or system Escherichia coli; conditions: Not Active = under 50% inhibition at 10 µM
Mitogen-activated protein kinase 3, sequence (P27361 whole entry): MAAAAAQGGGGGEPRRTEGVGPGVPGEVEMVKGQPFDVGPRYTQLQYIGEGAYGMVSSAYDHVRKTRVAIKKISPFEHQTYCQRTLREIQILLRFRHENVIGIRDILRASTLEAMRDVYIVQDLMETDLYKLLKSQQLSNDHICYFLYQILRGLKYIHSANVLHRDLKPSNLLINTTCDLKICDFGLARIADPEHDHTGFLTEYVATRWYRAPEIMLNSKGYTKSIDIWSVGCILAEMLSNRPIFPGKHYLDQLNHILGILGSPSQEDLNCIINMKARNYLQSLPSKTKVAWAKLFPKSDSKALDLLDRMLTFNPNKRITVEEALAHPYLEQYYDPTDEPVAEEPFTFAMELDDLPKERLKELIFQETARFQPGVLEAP

[5] = target: T4, Cysteinyl leukotriene receptor 1 (Homo sapiens, UniProt Q9Y271); assay type: cell membranes, CHO-K1, Membrane; conditions: cho-k1; further: in other assays of this panel Not Active means under 50% inhibition at 10 µM
T4 sequence (Q9Y271 whole entry): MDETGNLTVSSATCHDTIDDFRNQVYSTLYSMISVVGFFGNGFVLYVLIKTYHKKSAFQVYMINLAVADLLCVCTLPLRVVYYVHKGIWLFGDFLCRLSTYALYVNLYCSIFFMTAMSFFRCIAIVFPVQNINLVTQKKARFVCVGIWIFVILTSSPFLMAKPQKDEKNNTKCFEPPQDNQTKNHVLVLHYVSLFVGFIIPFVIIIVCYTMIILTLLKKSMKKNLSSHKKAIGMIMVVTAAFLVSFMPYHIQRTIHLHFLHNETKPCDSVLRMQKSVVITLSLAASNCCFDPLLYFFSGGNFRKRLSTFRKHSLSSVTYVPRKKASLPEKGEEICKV

Melanocortin receptor 5 = Melanocortin receptor 5 (Homo sapiens, UniProt P33032); assay type: cell membranes, HEK293, Membrane; conditions: hek293; further: in other assays of this panel Not Active means under 50% inhibition at 10 µM
Melanocortin receptor 5, sequence (P33032 whole entry): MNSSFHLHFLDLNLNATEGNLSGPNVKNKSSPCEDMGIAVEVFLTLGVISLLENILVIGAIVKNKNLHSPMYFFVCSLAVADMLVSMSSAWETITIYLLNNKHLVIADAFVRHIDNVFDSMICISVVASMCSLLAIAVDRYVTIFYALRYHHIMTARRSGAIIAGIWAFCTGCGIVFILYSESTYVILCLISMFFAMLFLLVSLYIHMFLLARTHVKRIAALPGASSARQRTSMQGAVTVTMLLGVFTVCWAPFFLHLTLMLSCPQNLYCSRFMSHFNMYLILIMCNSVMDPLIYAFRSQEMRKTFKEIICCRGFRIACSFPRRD

[6] = target: Sigma non-opioid intracellular receptor 1 (Homo sapiens, UniProt Q99720); assay: DRUGMATRIX: Sigma1 radioligand binding (ligand: [3H] Haloperidol); assay type: cell membranes, Jurkat, Membrane; conditions: jurkat; Not Active = under 50% inhibition at 10 µM
Sigma non-opioid intracellular receptor 1, sequence (Q99720 whole entry): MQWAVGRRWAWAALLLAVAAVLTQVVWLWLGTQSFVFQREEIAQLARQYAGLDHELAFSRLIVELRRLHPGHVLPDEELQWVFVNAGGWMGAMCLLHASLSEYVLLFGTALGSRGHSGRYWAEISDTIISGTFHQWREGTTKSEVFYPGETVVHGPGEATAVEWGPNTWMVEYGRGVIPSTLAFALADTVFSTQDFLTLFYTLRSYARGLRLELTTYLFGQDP

5-hydroxytryptamine receptor 4, sequence (O70528 whole entry): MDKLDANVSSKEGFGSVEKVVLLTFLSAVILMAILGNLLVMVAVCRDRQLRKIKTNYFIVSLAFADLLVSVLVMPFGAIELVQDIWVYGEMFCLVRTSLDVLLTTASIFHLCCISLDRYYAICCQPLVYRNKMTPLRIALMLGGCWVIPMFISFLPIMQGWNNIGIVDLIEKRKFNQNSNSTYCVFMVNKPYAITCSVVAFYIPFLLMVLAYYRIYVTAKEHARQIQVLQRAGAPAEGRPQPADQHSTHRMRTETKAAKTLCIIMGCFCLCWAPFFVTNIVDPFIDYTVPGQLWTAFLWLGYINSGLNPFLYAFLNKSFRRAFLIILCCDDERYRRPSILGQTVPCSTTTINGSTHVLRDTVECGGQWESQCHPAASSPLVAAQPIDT

CC(C)[C@H](N)C(=O)OCCOCn1cnc2c(=O)nc(N)[nH]c21 [VALACYCLOVIR]
Not Active: IC50 [1] | IC50 [2] | IC50 (Progesterone receptor) | IC50 (Adenosine receptor A1) | IC50 [3] | IC50 [4] | IC50 [5] | IC50 (Melanocortin receptor 5) | IC50 [6]

CN[C@H](CC(C)C)C(=O)N[C@H]1C(=O)N[C@@H](CC(N)=O)C(=O)N[C@H]2C(=O)N[C@H]3C(=O)N[C@H](C(=O)N[C@H](C(=O)O)c4cc(O)cc(O)c4-c4cc3ccc4O)[C@H](O)c3ccc(c(Cl)c3)Oc3cc2cc(c3O[C@@H]2O[C@H](CO)[C@@H](O)[C@H](O)[C@H]2O[C@H]2C[C@](C)(N)[C@H](O)[C@H](C)O2)Oc2ccc(cc2Cl)[C@H]1O [VANCOMYCIN]
Not Active: IC50 [1] | IC50 [2] | IC50 (Progesterone receptor) | IC50 (Adenosine receptor A1) | IC50 [3] | IC50 [4] | IC50 [5] | IC50 (Melanocortin receptor 5) | IC50 [6]

COc1ccc(C(CN(C)C)C2(O)CCCCC2)cc1 (centres undefined) [VENLAFAXINE]
Not Active: IC50 [1] | IC50 [2] | IC50 (Progesterone receptor) | IC50 (Adenosine receptor A1) | IC50 [3] | IC50 [4] | IC50 [5] | IC50 (Melanocortin receptor 5) | IC50 [6]

COC(=O)[C@@H]1[C@H]2C[C@H]3c4[nH]c5ccccc5c4CCN3C[C@@H]2CC[C@@H]1O [YOHIMBINE]
Not Active: IC50 [1] | IC50 [2] | IC50 (Progesterone receptor) | IC50 (Adenosine receptor A1) | IC50 [3] | IC50 [4] | IC50 [5] | IC50 (Melanocortin receptor 5) | IC50 [6]

IVERMECTIN
Not Active: IC50 [1] | Ki [1] | IC50 [2] | Ki [2] | IC50 (Progesterone receptor) | Ki (Progesterone receptor) | IC50 (Adenosine receptor A1) | Ki (Adenosine receptor A1) | IC50 [3] | Ki [3] | IC50 [4] | Ki [4] | IC50 [5] | Ki [5] | IC50 (Melanocortin receptor 5) | Ki (Melanocortin receptor 5) | IC50 [6] | Ki [6]
